In series [1] the test system is Rattus norvegicus. Nature of the series: Toxicity in Wistar rat assessed as biliary excretion of total bile salts per gm of liver at 5 mg/kg, sc administered as single dose after 5 hrs (reference value: 50 +/- 6 nmol/min). The note with it: in vivo. The format is organism-based. On the set-up: dose 5 mg/kg, route subcutaneous.
In series [2] the test system is Rattus norvegicus. Nature of the series: Toxicity in Wistar rat assessed as bile flow per gm of liver at 5 mg/kg, sc administered as single dose after 5 hrs (reference value: 1.40 +/- 0.14 ul/min). On the set-up: dose 5 mg/kg, route subcutaneous. The format is organism-based. The settings on record: in vivo.
Series [3] concerns Hepatocyte. Nature of the series: Effect on total ER level in Wistar rat hepatocytes nuclear extract at 10 uM after 30 to 120 mins by Western blot analysis. In kind it is ADME, cell-based. (A western blot detects proteins with antibodies after separation by electrophoresis.)
The test system of series [4] is Rattus norvegicus. Nature of the series: Toxicity in Wistar rat assessed as serum ALP activity at 5 mg/kg, sc administered as single dose after 5 hrs (reference value: 256 +/- 10 U/l). The format is organism-based. On the set-up: dose 5 mg/kg, route subcutaneous. The settings on record: in vivo.
In series [5] the test system is Rattus norvegicus. Nature of the series: Toxicity in Wistar rat assessed as increase in Mrp3 mRNA level at 5 mg/kg, sc administered as single dose after 5 hrs by qRT-PCR analysis. The note with it: in vivo. On the set-up: dose 5 mg/kg, route subcutaneous. The format is organism-based. (Quantitative PCR measures a nucleic acid by following its amplification.)
Series [6] has as its system Hepatocyte. Nature of the series: Effect on Mrp2 mRNA level in Wistar rat hepatocytes at 1 to 10 uM after 5 hrs by qRT-PCR analysis. The format is ADME, cell-based.
Series [7] deals with Rattus norvegicus. Briefly: Toxicity in Wistar rat assessed as biliary excretion of total glutathione per gm of liver at 5 mg/kg, sc administered as single dose after 5 hrs (reference value: 2 +/- 0.79 nmol/min). The format is organism-based. On the set-up: dose 5 mg/kg, route subcutaneous. The note with it: in vivo.

The values that follow come from ChEMBL document CHEMBL3525914, “Induction of hepatic multidrug resistance-associated protein 3 by ethynylestradiol is independent of cholestasis and mediated by estrogen receptor” (Drug Metab Dispos, 2013).

Take `C#C[C@]1(O)CC[C@H]2[C@@H]3CCc4cc(O)ccc4[C@H]3CC[C@@]21C` [ETHINYL ESTRADIOL]: the Activity in the series on Rattus norvegicus [1] is 47 nmol/min; in the series on Rattus norvegicus [2], 1.35 µL/min; with Hepatocyte [3], “Non-toxic”; in the series with Rattus norvegicus [4], 269 U/L; in the series with Rattus norvegicus [5], 330%; in the series with Hepatocyte [6] it was “Not Active”. In addition, the Activity in the series with Rattus norvegicus [7] was 1.8 nmol/min.
